# Source: patent publication US11827627B2, “N-(hydroxyalkyl (hetero)aryl) tetrahydrofuran carboxamides as modulators of sodium channels” (VERTEX PHARMACEUTICALS INCORPORATED, priority 2021, dated 2023)
# Target: human NaV 1.8 (Homo sapiens, UniProt Q9Y5Y9)
# Experiment: E-VIPR assay detecting and measuring NaV inhibition properties
# Type: cell-based
# Details: HEK cells expressing a truncated form of human NaV 1.8; electrical stimulation, membrane potential FRET dyes
# Outline: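 HEK cells expressing truncated full-activity NaV 1.8, co-transduced with KIR2.1 BacMam, seeded 16-20 h before assay. Electrical stimulation with FRET membrane-potential dyes (CC2-DMPE/DiSBAC6(3)) in HEPES-buffered bath solutions; 25% human serum final.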
# human NaV 1.8, sequence (Q9Y5Y9 126-1722 limits assumed): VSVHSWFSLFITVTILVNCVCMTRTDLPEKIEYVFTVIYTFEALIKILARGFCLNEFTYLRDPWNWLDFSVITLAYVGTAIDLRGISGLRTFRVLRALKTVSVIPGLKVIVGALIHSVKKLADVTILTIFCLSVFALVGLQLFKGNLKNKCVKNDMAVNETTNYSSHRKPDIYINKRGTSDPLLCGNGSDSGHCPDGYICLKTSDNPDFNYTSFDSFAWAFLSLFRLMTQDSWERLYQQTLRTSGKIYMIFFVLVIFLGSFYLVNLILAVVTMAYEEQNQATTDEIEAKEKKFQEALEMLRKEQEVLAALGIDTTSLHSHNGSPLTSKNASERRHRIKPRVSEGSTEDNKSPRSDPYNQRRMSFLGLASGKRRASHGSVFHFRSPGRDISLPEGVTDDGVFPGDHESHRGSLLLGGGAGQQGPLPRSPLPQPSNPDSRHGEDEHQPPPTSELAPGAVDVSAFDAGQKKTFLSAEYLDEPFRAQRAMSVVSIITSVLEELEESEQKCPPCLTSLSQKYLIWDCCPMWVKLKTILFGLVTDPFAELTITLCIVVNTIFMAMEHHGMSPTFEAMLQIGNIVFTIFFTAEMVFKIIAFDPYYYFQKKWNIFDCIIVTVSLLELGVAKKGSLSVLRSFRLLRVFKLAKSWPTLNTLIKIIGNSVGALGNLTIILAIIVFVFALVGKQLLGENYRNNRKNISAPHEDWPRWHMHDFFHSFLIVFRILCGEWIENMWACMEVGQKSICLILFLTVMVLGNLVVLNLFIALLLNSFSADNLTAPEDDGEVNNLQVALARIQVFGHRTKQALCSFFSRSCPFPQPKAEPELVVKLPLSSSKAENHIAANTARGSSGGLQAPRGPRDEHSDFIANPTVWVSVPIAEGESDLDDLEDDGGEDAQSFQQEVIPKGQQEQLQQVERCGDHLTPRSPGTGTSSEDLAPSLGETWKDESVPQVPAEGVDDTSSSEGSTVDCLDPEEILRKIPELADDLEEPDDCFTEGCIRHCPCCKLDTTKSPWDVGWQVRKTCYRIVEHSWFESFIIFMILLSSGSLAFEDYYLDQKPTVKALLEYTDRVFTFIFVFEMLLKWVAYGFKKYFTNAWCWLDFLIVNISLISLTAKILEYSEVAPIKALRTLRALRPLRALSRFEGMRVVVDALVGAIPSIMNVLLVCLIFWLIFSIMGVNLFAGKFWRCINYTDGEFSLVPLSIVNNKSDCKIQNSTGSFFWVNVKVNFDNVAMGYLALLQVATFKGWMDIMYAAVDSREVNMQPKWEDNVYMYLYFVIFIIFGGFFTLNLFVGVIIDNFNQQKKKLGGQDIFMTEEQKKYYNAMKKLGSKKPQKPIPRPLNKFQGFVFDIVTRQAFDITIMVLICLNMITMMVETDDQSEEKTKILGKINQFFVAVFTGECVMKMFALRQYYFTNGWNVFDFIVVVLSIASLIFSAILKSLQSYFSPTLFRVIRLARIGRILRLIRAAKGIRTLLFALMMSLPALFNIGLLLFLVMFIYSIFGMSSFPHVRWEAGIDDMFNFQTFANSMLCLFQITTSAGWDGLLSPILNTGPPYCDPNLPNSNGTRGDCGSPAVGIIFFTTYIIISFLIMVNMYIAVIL
row,SMILES,IC50 [µM]
1,"COc1c(C2C(C(=O)Nc3cnc(C(O)CO)nc3)OC(C)(C(F)(F)F)C2C)ccc(F)c1F (single isomer, unassigned) [Compound 12]",0.01 to 0.1
2,"CCOc1c([C@H]2[C@H](C(=O)Nc3ccc([C@@H](O)CO)nc3)O[C@@](C)(C(F)(F)F)[C@H]2C)ccc(F)c1F [Compound 7, (2R,3S,4S,5R)-N-(6-((R)-1,2-dihydroxyethyl)pyridin-3-yl)-3-(2-ethoxy-3,4-difluorophenyl)-4,5-dimethyl-5-(trifluoromethyl)tetrahydrofuran-2-carboxamide]",< 0.01
3,"[2H]C([2H])([2H])Oc1c([C@H]2[C@H](C(=O)Nc3ccc([C@@H](O)CO)nc3)O[C@@](C)(C(F)(F)F)[C@H]2C)ccc(F)c1F [Compound 8, (2R,3S,4S,5R)-3-(3,4-difluoro-2-(methoxy-d3)phenyl)-N-(6-((R)-1,2-dihydroxyethyl)pyridin-3-yl)-4,5-dimethyl-5-(trifluoromethyl)tetrahydrofuran-2-carboxamide]",< 0.01
4,"C[C@H]1[C@@H](c2ccc(F)c(F)c2OCCF)[C@H](C(=O)Nc2ccc([C@@H](O)CO)nc2)O[C@@]1(C)C(F)(F)F [Compound 37, (2R,3S,4S,5R)-3-(3,4-difluoro-2-(2-fluoroethoxy)phenyl)-N-(6-((R)-1,2-dihydroxyethyl)pyridin-3-yl)-4,5-dimethyl-5-(trifluoromethyl)tetrahydrofuran-2-carboxamide]",< 0.01
5,"COc1c(C2C(C(=O)Nc3cnc(C(O)CO)nc3)OC(C)(C(F)(F)F)C2C)ccc(F)c1F (single isomer, unassigned) [Compound 11]",< 0.01
6,CC(C)Oc1c(C2C(C(=O)Nc3cnc(C(O)CO)nc3)OC(C)(C(F)(F)F)C2C)ccc(F)c1F (stereo not shown) [Compound 9],0.01 to 0.1
7,"COc1c([C@H]2[C@H](C(=O)Nc3ccc(C(O)CF)nc3)O[C@@](C)(C(F)(F)F)[C@H]2C)ccc(F)c1F (single isomer, unassigned) [Compound 16, rel-(2R*,3S*,4S*,5R*)-3-(3,4-difluoro-2-methoxyphenyl)-N-(6-(2-fluoro-1-hydroxyethyl)pyridin-3-yl)-4,5-dimethyl-5-(trifluoromethyl)tetrahydrofuran-2-carboxamide]",< 0.01
8,"CCOc1c([C@@H]2C[C@](C)(C(F)(F)F)O[C@H]2C(=O)Nc2ccc([C@H](O)CO)nc2)ccc(F)c1F (single isomer, unassigned) [Compound 33, rel-(2R,3S,5R)-N-(6-((S*)-1,2-dihydroxyethyl)pyridin-3-yl)-3-(2-ethoxy-3,4-difluorophenyl)-5-methyl-5-(trifluoromethyl)tetrahydrofuran-2-carboxamide]",0.1 to 1
9,"COCCC(O)c1ccc(NC(=O)[C@@H]2O[C@@](C)(C(F)(F)F)[C@@H](C)[C@H]2c2ccc(F)c(F)c2OC)cn1 (single isomer, unassigned) [Compound 23, rel-(2R*,3S*,4S*,5R*)-3-(3,4-difluoro-2-methoxyphenyl)-N-(6-(1-hydroxy-3-methoxypropyl)pyridin-3-yl)-4,5-dimethyl-5-(trifluoromethyl)tetrahydrofuran-2-carboxamide]",0.1 to 1
10,"COc1c([C@@H]2C[C@](C)(C(F)(F)F)O[C@H]2C(=O)Nc2ccc([C@@H](O)CO)nc2)ccc(F)c1F (relative stereo) [Compound 24, rel-(2R,3S,5R)-3-(3,4-difluoro-2-methoxyphenyl)-N-(6-((R*)-1,2-dihydroxyethyl)pyridin-3-yl)-5-methyl-5-(trifluoromethyl)tetrahydrofuran-2-carboxamide]",0.1 to 1
11,"COc1c([C@H]2C[C@@](C)(C(F)(F)F)O[C@@H]2C(=O)Nc2cnc(C(O)CO)nc2)ccc(F)c1F (single isomer, unassigned) [Compound 28]",≥ 1
12,"C[C@H]1[C@@H](c2ccc(F)c(F)c2O)[C@H](C(=O)Nc2cnc(CO)nc2)O[C@@]1(C)C(F)(F)F [Compound 39, (2R,3S,4S,5R)-3-(3,4-difluoro-2-hydroxyphenyl)-N-(2-(hydroxymethyl)pyrimidin-5-yl)-4,5-dimethyl-5-(trifluoromethyl)tetrahydrofuran-2-carboxamide]",≥ 1
13,"COc1c(C2C(C(=O)Nc3ccc(C(O)CO)nc3)OC(C)(C(F)(F)F)C2C)ccc(F)c1C(F)F (single isomer, unassigned) [Compound 50]",≥ 1

# Now from value to compound:
row,IC50 [µM],SMILES
1,≥ 1,"C[C@@]1(C(F)(F)F)C[C@@H](c2ccc(OC(F)(F)F)cc2Cl)[C@H](C(=O)Nc2ccc([C@@H](O)CO)nc2)O1 (single isomer, unassigned) [Compound 63, rel-(2R,3S,5S)-3-(2-chloro-4-(trifluoromethoxy)phenyl)-N-(6-((R*)-1,2-dihydroxyethyl)pyridin-3-yl)-5-methyl-5-(trifluoromethyl)tetrahydrofuran-2-carboxamide]"
2,< 0.01,"COc1c(C2C(C(=O)Nc3ccc(C(O)CO)nc3)OC(C)(C(F)(F)F)C2C)ccc(F)c1C(F)F (single isomer, unassigned) [Compound 51]"
3,≥ 1,"C[C@]1(C(F)(F)F)C[C@H](c2ccc(OC(F)(F)F)cc2Cl)[C@@H](C(=O)Nc2ccc([C@@H](O)CO)nc2)O1 (single isomer, unassigned) [Compound 64, rel-(2S,3R,5R)-3-(2-chloro-4-(trifluoromethoxy)phenyl)-N-(6-((R*)-1,2-dihydroxyethyl)pyridin-3-yl)-5-methyl-5-(trifluoromethyl)tetrahydrofuran-2-carboxamide]"
4,< 0.01,"COc1c([C@H]2[C@H](C(=O)Nc3ccc([C@@H](C)O)nc3)O[C@@](C)(C(F)(F)F)[C@H]2C)ccc(F)c1F [Compound 84, (2R,3S,4S,5R)-3-(3,4-difluoro-2-methoxyphenyl)-N-(6-((R)-1-hydroxyethyl)pyridin-3-yl)-4,5-dimethyl-5-(trifluoromethyl)tetrahydrofuran-2-carboxamide]"
5,< 0.01,"COc1c([C@H]2[C@H](C(=O)Nc3cnc(CO)c(F)c3)O[C@@](C)(C(F)(F)F)[C@H]2C)ccc(F)c1F [Compound 83, (2R,3S,4S,5R)-3-(3,4-difluoro-2-methoxyphenyl)-N-(5-fluoro-6-(hydroxymethyl)pyridin-3-yl)-4,5-dimethyl-5-(trifluoromethyl)tetrahydrofuran-2-carboxamide]"
6,≥ 1,"Cc1c([C@@H]2[C@@H](C(=O)Nc3ccc(CO)nc3)O[C@@](C)(C(F)(F)F)[C@H]2C)ccc(F)c1F (single isomer, unassigned) [Compound 79]"
7,0.1 to 1,"COc1c([C@H]2[C@H](C(=O)Nc3cnc(CO)c(CO)c3)O[C@@](C)(C(F)(F)F)[C@H]2C)ccc(F)c1F [Compound 87, (2R,3S,4S,5R)-N-(5,6-bis(hydroxymethyl)pyridin-3-yl)-3-(3,4-difluoro-2-methoxyphenyl)-4,5-dimethyl-5-(trifluoromethyl)tetrahydrofuran-2-carboxamide]"
8,0.1 to 1,"C[C@]1(C(F)(F)F)C[C@@H](c2ccc(OC(F)(F)F)cc2Cl)[C@H](C(=O)Nc2ccc([C@@H](O)CO)nc2)O1 (single isomer, unassigned) [Compound 62, rel-(2R,3S,5R)-3-(2-chloro-4-(trifluoromethoxy)phenyl)-N-(6-((R*)-1,2-dihydroxyethyl)pyridin-3-yl)-5-methyl-5-(trifluoromethyl)tetrahydrofuran-2-carboxamide]"
9,0.01 to 0.1,"COc1c(C2C(C(=O)Nc3ccc(CO)nc3)OC(C)(C(F)(F)F)C2C)ccc(C(F)F)c1F (single isomer, unassigned) [Compound 91]"
